# Patent US20030114467A1, “Novel pyrazolo- and pyrrolo-pyrimidines and uses thereof” (priority 2001, published 2003)
# Experiment: Hydroxyapatite assay (hydroxyapatite adsorption chromatography, bone-targeting potential)
# Format: physicochemical
# Details: corrected retention K=(retention time-void time)/void; TSK-Gel HA 1000 HPLC column; linear gradient 10 mM to 500 mM sodium phosphate, 0.15 N NaCl, pH 6.8
# Protocol: Hydroxyapatite is the principal mineral component of bone. Hydroxyapatite adsorption chromatography is used as an assay to evaluate the bone-targeting potential of both individual bone-targeting moieties (“monomers”) and of pharmaceuticals incorporating bone-targeting groups.
# Method: The rentention time of a test compound is measured using a linear gradient from 10 mM sodium phosphate, 0.15 N NaCl, pH=6.8 to 500 mM sodium phosphate, 0.15 N NaCl, […] on a TSK-Gel HA 1000 high pressure liquid chromatography column (7.5 mm×75 mm). The rentention time of the compound is expressed in terms of K=(retention time-void time)/void. This K value is corrected using two reference compounds to correct from inter-column and inter-system variation to obtain a K′ value.
# Reference Compounds: K′ values were determined for known bone targeted compounds, the bisphosphonate, alendronate and tetracycline.
structure (smiles),measurement,value
"NCCCC(O)(P(=O)(O)O)P(=O)(O)O [Alendronate, alendronate]",K′ value,3.7
